Measured values: patent US6949573B2, “Nicotinamide derivatives useful as PDE4 inhibitors” (Pfizer Inc, priority 2002, dated 2005)

System: human peripheral blood mononuclear cells
Assay: Inhibition of LPS-stimulated TNFα release from human peripheral blood mononuclear cells (TNFα screen)
Type: cell-based
Settings: LPS-stimulated human PBMC, 18 hours incubation, TNFα in supernatant by ELISA
Description: Venous blood Is collected from healthy volunteers and the mononuclear cells purified by centrifugation through Histopaque (ficoll) cushions. TNFα production from these cells is stimulated by addition of lipopolysaccharide. After 18 hours incubation in the presence of LPS, the cell supernatant is removed and the concentration of TNFα in the supernatant determined by ELISA. Addition of PDE4 inhibitors reduces the amount of TNFα produced. An IC50 is determined which is equal to the concentration of compound that gives 50% inhibition of TNFα production as compared to the LPS stimulated control wells.

Work on COC(=O)CCC(=O)NC1CCC(NC(=O)c2cc(F)cnc2Oc2ccc(F)cc2)CC1 (stereo not drawn) [Example 110, Syn-N-(4-{[5-fluoro-2-(4-fluoro-phenoxy)-pyridine-3-carbonyl]-amino}-cyclo-hexyl)-succinamic acid methyl ester] yielded an IC50 of 14 nM.
